Measured values as given in patent US7842805B2, “Pharmaceutical compounds as activators of caspases and inducers of apoptosis and the use thereof” (Myrexis, Inc., priority 2005, dated 2010).

Tests used:
T-47D [1] = test: Caspase cascade activation assay (Ac-DEVD-R110 fluorogenic substrate); assay type: cell-based, Human; settings: T-47D (24 hr); for EC50: Homo sapiens, T47D, read-out: Caspase potency EC50; for Caspase activity (Ratio): ratio of net RFU of test compound to control
Description: Human breast cancer cell lines T-47D and DLD-1 were grown according to media component mixtures designated by American Type Culture Collection+10% FCS (Invitrogen Corporation), in a 5% CO2-95% humidity incubator at 37° C. T-47D and DLD-1 cells were maintained at a cell density between 50 and 80% confluency at a cell density of 0.1 to 0.6×10^6 cells/mL. Cells were harvested at 600×g and resuspended at 0.65×10^6 cells/mL into appropriate media+10% FCS. An aliquot of 22.5 μL of cells was added to a well of a 384-well microtiter plate containing 2.5 μL of a 10% DMSO in RPMI-1640 media solution containing 0.16 to 100 μM of benzo[d][1,2,3]triazin-4-yl-(4-methoxyphenyl)-methyl-amine or other test compound (0.016 to 10 μM final). An aliquot of 22.5 μL of cells was added to a well of a 384-well microtiter plate containing 2.5 μL of a 10% DMSO in RPMI-1640 media solution without test compound as the control sample. […] After incubation, the samples were removed from the incubator and 25 μL of a solution containing 14 μM of N—(Ac-DEVD)-N′-ethoxycarbonyl-R110 fluorogenic substrate (Cytovia, Inc.; WO99/18856), 20% sucrose (Sigma), 20 mM DTT (Sigma), 200 mM NaCl (Sigma), 40 mM Na PIPES buffer pH 7.2 (Sigma), and 500 μg/mL lysolecithin (Calbiochem) was added. The samples were mixed by agitation and incubated at room temperature. Using a fluorescent plate reader (Model SPECTRAfluor Plus, Tecan), an initial reading (T=0) was made approximately 1-2 min after addition of the substrate solution, employing excitation at 485 nm and emission at 530 nm, to determine the background fluorescence of the control sample. After the 3 h incubation, the samples were read for fluorescence as above (T=3 h).
The Relative Fluorescence Unit values (RFU) were used to calculate the sample readings as follows: RFU(T=3h)−Control RFU(T=0)=Net RFU(T=3h)
The activity of caspase cascade activation was determined by the ratio of the net RFU value for benzo[d][1,2,3]triazin-4-yl-(4-methoxy-phenyl)-methyl-amine or other test compounds to that of control samples. The EC50 (nM) was determined by a sigmoidal dose-response calculation (Prism 3.0, GraphPad Software Inc.).

H1299 = test: Inhibition of cell proliferation (GI50, CellTiter-Glo); assay type: cell-based; settings: Homo sapiens, NCI-H1299; H1299 cells, 48 h
Description: (§1) T-47D, HT29, H1299, MX-1 and MDAMB435 cells were grown and harvested as in Example 29. An aliquot of […] of cells (4.4×10^4 cells/mL) was added to a well of a 96-well microtiter plate containing 5 μL of a 10% DMSO in RPMI-1640 media solution containing 10 nM to 100 μM of benzo[d][1,2,3]triazin-4-yl-(4-methoxy-phenyl)methyl-amine (1 nM to 10 μM final). An aliquot of 45 μL of cells was added to a well of a 96-well microtiter plate containing 5 μL of a 10% DMSO in RPMI-1640 media solution without compound as the control sample for maximal cell proliferation (LMax). The samples were mixed by agitation and then incubated at 37° C. for 48 h in a 5% CO2-95% humidity incubator. After incubation, the samples were removed from the incubator and 25 μL of CellTiter-Glo™ reagent (Promega) was added. The samples were mixed by agitation and incubated at room temperature for 10-15 min. Plates were then read using a luminescent plate reader (Model SPECTRAfluor Plus, Tecan) to give Ltest values.
(§2) Baseline for GI50 (dose for 50% inhibition of cell proliferation) of initial cell numbers was determined by adding an aliquot of 45 μL of cells or 45 μL of media, respectively, to wells of a 96-well microtiter plate containing 5 μL of a 10% DMSO in RPMI-1640 media solution. The samples were mixed by agitation and then incubated at 37° C. for 0.5 h in a 5% CO2-95% humidity incubator. After incubation, the samples were removed from the incubator and 25 μL of CellTiter-Glo™ reagent (Promega) was added. The samples were mixed by agitation and incubated at 37° C. for 10-15 min at room temperature in a 5% CO2-95% humidity incubator. Fluorescence was read as above, (Lstart) defining luminescence for initial cell number used as baseline in GI50 determinations.
(§3) GI50 (dose for 50% inhibition of cell proliferation) is the concentration where [(LTest−Lstart)/(LMax−Lstart)]=0.5.

HT29 = test: as above; assay type: cell-based; settings: Homo sapiens, HT-29; HT29 cells, 48 h
Description: as §1, §2, §3

MDAMB435 = test: as above; assay type: cell-based; settings: Homo sapiens, MDA-MB-435; MDAMB435 cells, 48 h
Description: as §1, §2, §3

MX-1 = test: as above; assay type: cell-based; settings: Homo sapiens, MX1; MX-1 cells, 48 h
Description: as §1, §2, §3

T-47D [2] = test: as above; assay type: cell-based; settings: Homo sapiens, T47D; T-47D cells, 48 h
Description: as §1, §2, §3

Row | SMILES | EC50 (T-47D [1]) [nM] | Caspase activity (Ratio) (T-47D [1]) | GI50 (H1299) [nM] | GI50 (HT29) [nM] | GI50 (MDAMB435) [nM] | GI50 (MX-1) [nM] | GI50 (T-47D [2]) [nM]
1 | COc1ccc(N(C)c2nnnc3ccccc23)cc1 [Example 1, Benzo[d][1,2,3]triazin-4-yl-(4-methoxy-phenyl)-methyl-amine] | 16 | 9.3 | 40 | 50 | 7 | 50 | 50
2 | COc1ccc(N(C)c2nncc3ccccc23)cc1 [Example 2, (4-Methoxy-phenyl)-methyl-phthalazin-1-yl-amine] | 106 | 11.1 | 106 | 200 | 62 | 52 | 120
